From US20050209278A1, “Piperidinyl- and piperazinyl-sulfonylmethyl hydroxamic acids and their use as protease inhibitors” (priority 2002, published 2005)
pKi: −log10 of the molar value.

How the values were obtained:
MMP-14 = target: T1, MMP-14 (Homo sapiens, UniProt P50281); assay: In vitro MMP inhibition, Ki determination (fluorogenic substrate II); format: biochemical; conditions: value not in parenthesis; read-out: MMP-14 Ki
T1 construct: The catalytic domain enzyme was expressed in E. coli inclusion bodies, solubilized in urea; made in house
Procedure, shortened: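 Apparent Ki was fitted with Morrison's equation from reaction rates at a single low enzyme level. Enzyme was APMA- or trypsin-activated refolded MMP-14 catalytic domain, buffered at pH 7.5 with 10 mM CaCl2.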

MMP-13 = target: T2, MMP-13 (Homo sapiens, UniProt P45452); assay: as above; format: biochemical; conditions: value not in parenthesis; read-out: MMP-13 Ki
T2 construct: made in house; host or cells: baculovirus / insect cells
Procedure, shortened: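 Room-temperature, 1 h incubation of APMA-activated recombinant human MMP-13 with 4 μM quenched substrate II (cleaved at Gly-Leu) in pH 7.5 Tris/NaCl/CaCl2 buffer. Inhibition appears as a slowed rise in 330/420 nm fluorescence. Single low enzyme and substrate levels were used for Ki.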

SMILES | pKi (MMP-14) | pKi (MMP-13)
COc1ccc(-c2ccc(N3CCN(S(=O)(=O)C4(C(=O)NO)CCOCC4)CC3)nc2)cc1 [Example 61] | 6.70 | 9.80
O=C(NO)C1(S(=O)(=O)N2CCN(c3ccc(OC(F)(F)C(F)F)cc3)CC2)CCSCC1 [Example 62] | 5.94 | 9.30
CCCCOc1ccc(N2CCN(S(=O)(=O)C3(C(=O)NO)CC3)CC2)cc1 [Example 63] | < 5.00 | 8.50
CCCCOc1ccc(N2CCN(S(=O)(=O)C3(C(=O)NO)CCN(c4ccc(OC(F)(F)C(F)F)cc4)CC3)CC2)cc1 [Example 65] | < 5.00 | 7.49
O=C(NO)C1(S(=O)(=O)N2CCN(c3ccc4c(c3)OC(F)(F)C(F)(F)O4)CC2)CCOCC1 [Example 67] | < 5.00 | 6.81
O=C(NO)C1(S(=O)(=O)N2CCN(c3ccc(COCC(F)(F)C(F)(F)F)cc3)CC2)CCOCC1 [Example 70] | < 5.00 | 9.21
CCCCOc1ccc(N2CCN(S(=O)(=O)C3(C(=O)NO)CCN(C(=O)c4ccco4)CC3)CC2)cc1 [Example 156] | 5.61 | 9.51
CCCCOc1ccc(N2CCN(S(=O)(=O)C3(C(=O)NO)CCN(c4nccs4)CC3)CC2)cc1 [Example 157] | 5.56 | 8.99
CCCCOc1ccc(N2CCN(S(=O)(=O)C3(C(=O)NO)CCN(c4ncccn4)CC3)CC2)cc1 [Example 159] | 5.69 | 9.23
CCCCOc1ccc(N2CCN(S(=O)(=O)C3(C(=O)NO)CCN(C(=O)c4cccs4)CC3)CC2)cc1 [Example 160] | 5.56 | 9.38
Cc1ccc(N2CCC(C(=O)NO)(S(=O)(=O)N3CCN(c4ccc(OCCCC(F)(F)F)cc4)CC3)CC2)cc1 [Example 161] | < 5.00 | 8.54
O=C(NO)C1(S(=O)(=O)N2CCN(c3ccc(OCCN4CCCC4)cc3)CC2)CCOCC1 [Example 162] | < 5.00 | 8.11
CCCCOc1ccc(N2CCN(S(=O)(=O)C3(C(=O)NO)CCN(CCOC)CC3)CC2)cn1 [Example 164] | 5.05 | 7.66
CCCCOc1c(F)cc(N2CCN(S(=O)(=O)C3(C(=O)NO)CCN(CCOC)CC3)CC2)cc1F [Example 165] | 5.44 | 8.99
COCCN1CCC(C(=O)NO)(S(=O)(=O)N2CCN(c3ccc(OCC(C)C)c(F)c3)CC2)CC1 [Example 166] | < 5.00 | 9.15
CCCCCc1ccc(N2CCN(S(=O)(=O)C3(C(=O)NO)CCOCC3)CC2)nc1 [Example 167] | 6.34 | 10.10
O=C(NO)C1(S(=O)(=O)N2CCN(c3ccccn3)CC2)CCOCC1 [Example 169] | 7.07 | 8.73
O=C(NO)C1(S(=O)(=O)N2CCN(c3ccc(SC(F)(F)F)cc3)CC2)CCOCC1 [Example 170] | 6.34 | 9.02
CCCc1ccc(N2CCN(S(=O)(=O)C3(C(=O)NO)CCN(c4ccc(C)cc4)CC3)CC2)cc1 [Example 171] | 5.39 | 7.67
CCCCc1ccc(N2CCN(S(=O)(=O)C3(C(=O)NO)CCN(CCOC)CC3)CC2)cc1F [Example 173] | 5.73 | 9.16
COCCN1CCC(C(=O)NO)(S(=O)(=O)N2CCN(c3ccc(C(C)=O)cc3)CC2)CC1 [Example 174] | 5.54 | 8.45

SMILES | pKi (MMP-14) | pKi (MMP-13)
CCCNC(=O)c1ccc(N2CCN(S(=O)(=O)C3(C(=O)NO)CCN(CCOC)CC3)CC2)cc1 [Example 175] | < 5.00 | 8.08
COCCN1CCC(C(=O)NO)(S(=O)(=O)N2CCN(c3ccccn3)CC2)CC1 [Example 176] | 6.74 | 8.76
CCCCC(=O)c1ccc(N2CCN(S(=O)(=O)C3(C(=O)NO)CCN(CCOC)CC3)CC2)cc1 [Example 177] | < 5.00 | 9.07
CCCc1cnc(N2CCN(S(=O)(=O)C3(C(=O)NO)CCN(CCOC)CC3)CC2)nc1 [Example 178] | 5.59 | 8.28
CCCC(C)Cc1ccc(N2CCN(S(=O)(=O)C3(C(=O)NO)CCN(CCOC)CC3)CC2)cc1 (centres unmarked) [Example 189] | < 5.00 | 8.69
CCC(C)Cc1ccc(N2CCN(S(=O)(=O)C3(C(=O)NO)CCN(CCOC)CC3)CC2)cc1 (centres unmarked) [Example 190] | 5.21 | 9.07
COCCN1CCC(C(=O)NO)(S(=O)(=O)N2CCN(c3ccc(CCCCC(C)C)cc3)CC2)CC1 [Example 191] | 5.17 | 9.24
COCCN1CCC(C(=O)NO)(S(=O)(=O)N2CCN(c3ccc(CC(C)C)cc3)CC2)CC1 [Example 192] | 5.16 | 8.71
CCc1ccc(N2CCN(S(=O)(=O)C3(C(=O)NO)CCN(CCOC)CC3)CC2)cc1 [Example 193] | 6.39 | 8.75
COCCN1CCC(C(=O)NO)(S(=O)(=O)N2CCN(c3ccc(C)cc3)CC2)CC1 [Example 194] | 6.51 | 8.39
COCCN1CCC(C(=O)NO)(S(=O)(=O)N2CCN(c3ccccc3)CC2)CC1 [Example 195] | 6.38 | 8.09
COCCN1CCC(C(=O)NO)(S(=O)(=O)N2CCN(c3nc4ccccc4o3)CC2)CC1 [Example 196] | 5.16 | 7.25
CCCCCc1ccc(N2CCN(S(=O)(=O)C3(C(=O)NO)CCOCC3)CC2)nn1 [Example 197] | < 5.00 | 8.22
O=C(NO)C1(S(=O)(=O)N2CCN(c3ccc(Cl)nn3)CC2)CCOCC1 [Example 198] | 5.89 | 7.22
CCCCCCc1ccc(N2CCN(S(=O)(=O)C3(C(=O)NO)CCN(CCOC)CC3)CC2)cc1 [Example 199] | 5.34 | 9.40
CCCc1ccc(N2CCN(S(=O)(=O)C3(C(=O)NO)CCN(CCOC)CC3)CC2)cc1 [Example 200] | 6.07 | 8.79
COCCN1CCC(C(=O)NO)(S(=O)(=O)N2CCN(c3ccc(Br)cc3)CC2)CC1 [Example 201] | 6.92 | 8.87
COCCN1CCC(C(=O)NO)(S(=O)(=O)N2CCN(c3ccc(OC(F)(F)F)cc3)CC2)CC1 [Example 202] | 6.21 | 9.01
O=C(NO)C1(S(=O)(=O)N2CCN(c3ccc(OC(F)(F)F)cc3)CC2)CCN(C2CC2)CC1 [Example 203] | 6.24 | 9.46
CCCCCc1ccc(N2CCN(S(=O)(=O)C3(C(=O)NO)CCN(S(N)(=O)=O)CC3)CC2)cc1 [Example 205] | 5.30 | 8.62
CCCCCc1ccc(N2CCN(S(=O)(=O)C3(C(=O)NO)CCN(C(=O)CC)CC3)CC2)cc1 [Example 206] | 6.96 | 9.39

SMILES | pKi (MMP-14) | pKi (MMP-13)
Cc1ccc(-c2ccc(N3CCN(S(=O)(=O)C4(C(=O)NO)CCOCC4)CC3)cc2)cc1 [Example 207] | < 5.00 | 9.03
O=C(NO)C1(S(=O)(=O)N2CCN(c3ccc(-c4ccc(F)cc4)cc3)CC2)CCOCC1 [Example 208] | 6.21 | 9.44
O=C(NO)C1(S(=O)(=O)N2CCN(c3cnc(CCCC(F)(F)F)cn3)CC2)CCOCC1 [Example 209] | < 5.00 | 8.48
O=C(NO)C1(S(=O)(=O)N2CCN(c3cnc(CCC(F)(F)C(F)(F)F)cn3)CC2)CCOCC1 [Example 210] | 5.35 | 9.16
O=C(NO)C1(S(=O)(=O)N2CCN(c3ccc(OCC(F)(F)C(F)(F)F)cc3)CC2)CCOCC1 [Example 212] | 5.25 | 9.52
CC(C)Cc1ccc(N2CCN(S(=O)(=O)C3(C(=O)NO)CCOCC3)CC2)c(F)c1 [Example 213] | 5.37 | 7.79
CCCCc1nnc(N2CCN(S(=O)(=O)C3(C(=O)NO)CCOCC3)CC2)s1 [Example 214] | < 5.00 | 6.32
O=C(NO)C1(S(=O)(=O)N2CCN(c3nncs3)CC2)CCOCC1 [Example 215] | < 5.00 | 5.72
CCCc1nnc(N2CCN(S(=O)(=O)C3(C(=O)NO)CCOCC3)CC2)s1 [Example 216] | < 5.00 | 6.13
CCCCc1ccc(N2CCN(S(=O)(=O)C(C)C(=O)NO)CC2)nc1 (centres unmarked) [Example 217] | 5.82 | 8.92
O=C(NO)C1(S(=O)(=O)N2CCN(c3cnc(CCC(F)(F)F)cn3)CC2)CCOCC1 [Example 218] | 5.34 | 8.69
CCCCCc1cnc(N2CCN(S(=O)(=O)C3(C(=O)NO)CCOCC3)CC2)cn1 [Example 219] | 5.49 | 8.95
CCCCOc1ccc(N2CCN(S(=O)(=O)C3(C(=O)NO)CCN(c4ccc5c(c4)OCO5)CC3)CC2)cc1 [Example 221] | < 5.00 | 8.45
CCCCOc1ccc(N2CCN(S(=O)(=O)C3(C(=O)NO)CCS(=O)(=O)CC3)CC2)cc1 [Example 222] | < 5.00 | 8.40
CCCCOc1ccc(N2CCN(S(=O)(=O)C3(C(=O)NO)CCN(c4ccsc4)CC3)CC2)cc1 [Example 223] | 5.15 | 8.85
CCCCOc1ccc(N2CCN(S(=O)(=O)C3(C(=O)NO)CCN(c4ccc(C#N)cc4)CC3)CC2)cc1 [Example 225] | < 5.00 | 8.23
CCCCOc1ccc(N2CCN(S(=O)(=O)C3(C(=O)NO)CCN(c4cccc(C)c4)CC3)CC2)cc1 [Example 226] | < 5.00 | 8.36
COCCSc1ccc(N2CCN(S(=O)(=O)C3(C(=O)NO)CCOCC3)CC2)cc1 [Example 227] | 5.77 | 8.75
CCCCOc1ccc(N2CCN(S(=O)(=O)C3(C(=O)NO)CCN(c4ccc(OC)c(OC)c4)CC3)CC2)cc1 [Example 229] | 5.10 | 9.00
